For test [1], the target named is T1, aldose reductase (Bos taurus, UniProt P16116).
T1 construct: preparation of the enzyme from bovine lens; from tissue; host or cells: bovine lens
The test is described as follows: In vitro aldose reductase inhibition (modified Hayman and Kinoshita procedure; enzyme from bovine lens). The format is biochemical. To be noted: for inhibition at 10 µM: read-out: % Inhibition IN VITRO 10^-5 M; for inhibition at 1 µM: read-out: % Inhibition IN VITRO 10^-6 M; for inhibition at 0.1 µM: read-out: % Inhibition IN VITRO 10^-7 M. From the text: In the present case the procedure of Hayman and Kinoshita was modified in that the final chromatography step was omitted in the preparation of the enzyme from bovine lens.

The subject of test [2] is galactitol accumulation in the tissues of the lens, sciatic nerve, and diaphragm. Put plainly: Galactosemic rats: lowering of dulcitol (galactitol) accumulation in lens, sciatic nerve and diaphragm. The test is classed as in vivo, Male Sprague-Dawley rats. The note with it: 20% galactose diet, mg/kg by Example: 1:90, 2:128, 3:141, 4:93, 5:121, 6:110, 7:123, 8:87, 9:92, 10:102, 11:71, 12:84, 13:93, 14:112, 16:100, 17:100, 18:128, 19:117, 20:140, 21:103, 22:151, tolrestat:6; for % Lowering dulcitol accumulation IN VIVO, D: diaphragm; for % Lowering dulcitol accumulation IN VIVO, L: lens. The procedure: Such experiments are exemplified hereinbelow after the listing of the following general comments pertaining to these experiments:
Male Sprague-Dawley rats, weighing approximately 90 grams were separated into groups of equal average body weight, with six animals per group. The animals were housed in cages of six animals each and maintained on 12 hour night/12 hour day cycles. Except as otherwise noted, the animals were given food and water ad libitum.
On day 1, the galactosemic control group and all drug-treated groups were given access to 20% galactose chow (Bio-Serv, Frenchtown, N.J.). Animals in the control group were given access to 20% glucose chow (Bio-Serv). Test compounds were administered either in the diet or by gavage as a suspension in 2% Tween 80 in saline. In experiments in which gavage dosing was used, the animals were administered the test compound daily at approximately the same hour each day. Food intake and body weight were determined twice during the course of the experiment. In cases in which the compound was administered in the diet, the average dose was calculated on the basis of the actual average food intake during the experiment.
On the morning of day 5, all animals were fasted; beginning two hours later the animals were decapitated and the lenses, sciatic nerves, and a 50-100 mg portion of the diaphragm were removed, weighed, and frozen in porcelain plates on dry ice.
Only two minor reagent changes were made: (a) the rinsing mixture was an aqueous 5% (w/v) trichloroacetic acid solution and (b) the stock solution was prepared by dissolving 25 mg of dulcitol in 100 mL of an aqueous trichloroacetic acid solution [N.B.: For each experiment the average value found in the tissue from rats fed the glucose diet was subtracted from the individual values found in the corresponding tissue in galactose-fed rats to obtain the amount of polyol accumulated.]
The figures under L, N and D represent the percentage decrease of galactitol accumulation in the tissues of the lens, sciatic nerve, and diaphragm, respectively for treated rats as compared to untreated rats.

Test [3] deals with aldose reductase. The note with it: reported by K. Sestanj et al., U.S. Pat. No. 4,568,693; cited from earlier work.

As a reminder, the inhibition is the drop in the measured response relative to a control, in per cent.

Consider `Cc1nc(-c2cccc3ccccc23)n(CC(=O)O)c(=O)c1C#N` [Example 21, 5-cyano-1,6-dihydro-4-methyl-2-(1-naphthalenyl)-6-oxo-1-pyrimidineacetic acid], for which, on aldose reductase [1], the inhibition at 10 µM worked out at 87%, the inhibition at 1 µM came to 55% and the inhibition at 0.1 µM stood at 14%. Besides, in test [2], the “% Lowering dulcitol accumulation IN VIVO, D” value is “N.S” and the “% Lowering dulcitol accumulation IN VIVO, L” value was 18%.
With `N#Cc1c(Cc2cccc3ccccc23)nc(-c2cccc3c(Br)cccc23)n(CC(=O)O)c1=O` [Example 22], at aldose reductase [1], the inhibition at 10 µM turned out to be 93%, the inhibition at 1 µM was 85% and the inhibition at 0.1 µM was 46%. Further, in test [2], the “% Lowering dulcitol accumulation IN VIVO, D” value is listed as “N.S” and the “% Lowering dulcitol accumulation IN VIVO, L” value was “N.S”.
As to `COc1ccc2c(C(=S)N(C)CC(=O)O)cccc2c1C(F)(F)F` [tolrestat, N-[[6-methoxy-5-(trifluoromethyl)-1-naphthalenyl]-thioxomethyl]-N-methylglycine, reference compound], in the test with aldose reductase [3], the “inhibitor of aldose reductase (in words)” value is “effective inhibitor of aldose reductase”. Also, in test [2], the “% Lowering dulcitol accumulation IN VIVO, D” value is reported as 90% and the “% Lowering dulcitol accumulation IN VIVO, L” value is given as “N.S”.

These data come from patent US4786638A, “2,4-disubstituted-5-cyano-1,6-dihydro-6-oxo-1-pyrimidineacetic acid aldose reductase inhibitors” (American Home Products Corporation, priority 1987, dated 1988).
